Measured values from publication doi:10.1101/2024.02.23.581731v1 (biorxiv, 2024).
Positions count from the first letter of the chain named.

Columns and labels:
h5-HT3AR [1] = biological target: T1, h5-HT3AR (Homo sapiens, UniProt P46098); experiment: FLIPR Blue membrane potential assay, activation; format: cell-based; settings: relative to 1 µM VTX
T1 sequence (P46098 24-478): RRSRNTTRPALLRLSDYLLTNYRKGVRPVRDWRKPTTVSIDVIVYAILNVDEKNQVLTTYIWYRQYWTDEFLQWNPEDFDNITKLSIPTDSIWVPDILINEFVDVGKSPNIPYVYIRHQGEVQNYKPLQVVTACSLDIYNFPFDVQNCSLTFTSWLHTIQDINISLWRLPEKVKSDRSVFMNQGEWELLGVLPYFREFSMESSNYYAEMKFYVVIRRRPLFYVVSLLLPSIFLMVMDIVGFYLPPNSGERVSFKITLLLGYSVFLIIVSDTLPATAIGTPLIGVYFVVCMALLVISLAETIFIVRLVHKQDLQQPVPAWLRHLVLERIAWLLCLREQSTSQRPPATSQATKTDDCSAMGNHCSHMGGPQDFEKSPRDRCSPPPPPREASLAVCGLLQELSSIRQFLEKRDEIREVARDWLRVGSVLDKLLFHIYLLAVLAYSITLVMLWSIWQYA

h5-HT3AR [2] = biological target: T1, h5-HT3AR; experiment: [3H]-GR65630 displacement, HEK-293 membranes; format: binding
gp5-HT3AR = biological target: T2, gp5-HT3AR (Cavia porcellus, UniProt O70212); experiment: FLIPR Blue membrane potential assay, inhibition of 5-HT response; format: cell-based
T2 sequence (O70212 20-490): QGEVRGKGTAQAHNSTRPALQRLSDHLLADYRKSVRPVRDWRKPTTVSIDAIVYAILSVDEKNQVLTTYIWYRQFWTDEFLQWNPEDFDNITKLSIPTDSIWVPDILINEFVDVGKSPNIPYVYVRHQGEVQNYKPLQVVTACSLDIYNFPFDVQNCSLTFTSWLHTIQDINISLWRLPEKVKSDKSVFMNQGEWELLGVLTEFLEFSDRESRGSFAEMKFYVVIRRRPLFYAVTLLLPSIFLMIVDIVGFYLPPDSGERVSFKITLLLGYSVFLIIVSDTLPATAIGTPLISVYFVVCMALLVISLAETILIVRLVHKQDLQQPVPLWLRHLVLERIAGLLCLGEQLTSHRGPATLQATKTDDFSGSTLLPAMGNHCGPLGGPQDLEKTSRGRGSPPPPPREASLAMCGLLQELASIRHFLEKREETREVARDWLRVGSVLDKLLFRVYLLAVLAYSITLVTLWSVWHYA

h5-HT3AR [3] = biological target: T3, h5-HT3AR (Homo sapiens, UniProt P46098, V202I); experiment: biochemical
T3 sequence (P46098 24-478 V202I): T1 sequence (P46098 24-478) with V179I

h5-HT3AR [4] = biological target: T1, h5-HT3AR; experiment: biochemical

| Compound | Activity (%) at 1 μM (h5-HT3AR [1]) [%] | IC50 (gp5-HT3AR) [µM] | further results |
| --- | --- | --- | --- |
| COc1ccc(Sc2ccccc2N2CCNCC2)c(Cl)c1 [5n] | 111 ± 14 | – | – |
| Cc1ccc(Sc2ccccc2N2CCNCC2)cc1 [4j] | 95 ± 12 | – | – |
| Cc1ccc(Sc2ccc(C)cc2N2CCNCC2)c(C)c1 [6b] | – | – | Ki (h5-HT3AR [2]): 0.88 µM |
| Cc1[nH]cnc1CCC(=O)c1cn(C)c2ccccc12 [[3H]-GR65630] | – | – | Kd (h5-HT3AR [3]): 0.00062 ± 5e-05 µM; Kd (h5-HT3AR [4]): 0.00082 ± 6e-05 µM |

More lines, main results first:

| Activity (%) at 1 μM (h5-HT3AR [1]) [%] | IC50 (gp5-HT3AR) [µM] | Compound | further results |
| --- | --- | --- | --- |
| – | 9.81 | Cc1nccn1CC1CCc2c(c3ccccc3n2C)C1=O (stereo not shown) [ondansetron] | – |
| – | 1.26 | CN1C2CCCC1CC(NC(=O)c1nn(C)c3ccccc13)C2 (stereo not shown) [granisetron] | – |
